These results are taken from EP1849776A1, “Azepane- or Azocane-substituted pyrazoline compounds, their preparation and use as medicaments” (LABORATORIOS DEL DR. ESTEVE, S.A., priority 2006, dated 2007).

As usually defined, the IC50 is the concentration that inhibits the measured activity by half.

One experiment has as its target T1, CB1-Receptor (Homo sapiens, UniProt P21554).
T1 construct: purchased Receptor Biology, Inc
Nature of the experiment: In-vitro determination of affinity to CB1 receptor (radioligand binding). The settings on record: transfected human CB1 receptors of Receptor Biology, Inc.; radioligand [^3H]-CP55940; read-out: CB1-Receptor Radiologand:[^3H]-CP55940 IC50. Here is the method:
The in-vitro determination of the affinity of the inventive quaternary ammonium salts of substituted pyrazoline compounds to CB1/CB2-Rezeptors is carried out as described in the publication of Ruth A. Ross, Heather C. Brockie et al., "Agonist-inverse agonist characterization at CB1 and CB2 cannabinoid receptors of L-759633, L759656 and AM630", British Journal of Pharmacology, 126, 665-672, (1999), whereby the transfected human CB1 and CB2 receptors of Receptor Biology, Inc. are used. The radioligand used for both receptors is [^3H]-CP55940. The respective parts of the description are hereby incorporated by reference and forms part of the present disclosure.

Another experiment concerns Male NMRI mice. The experiment in a line: Mouse tetrad model, antagonistic activity against Win 55212-2. Conditions: against Win 55212-2 (1.25 mg/kg intravenous), substance injected 5 minutes before the agonist, tetrad component not specified. It is filed as in vivo. The source says: Substances with affinity for cannabinoid receptors are known to produce a wide range of pharmacological effects. It is also known that intravenous administration of a substance with affinity for cannabinoid receptors in mice produces analgesia , hypothermia, sedation and catalepsy. Individually, none of these effects can be considered as proof that a tested substance has affinity for cannabinoid-receptors, since all of these effects are common for various classes of centrally active agents. However, substances, which show all of these effects, i.e. substances that are active in this so-called tetrad model are considered to have affinity for the cannabinoid receptors. It has further been shown that cannabinoid receptor antagonists are higly effective in blocking the effects of a cannabinoid agonist in the mouse tetrad model.
The tetrad model is described, for example, in the publication of A. C. Howlett et al, International Union of Pharmacology XXVII. […]
Before testing in the behavioral procedures given below, mice are acclimatized to the experimental setting. Pre-Treatment control values are determined for analgesia hot plate latency (in seconds), rectal temperature, sedation and catalepsy.
In order to determine the agonistic activty of the substance to be tested, the mice are injected intravenously with the substance to be tested or the vehicle alone. 15 minutes after injection, latency in hot plate analgesia is measured. Rectal temperature, sedation and catalepsy are measured 20 minutes after injection.
In order to determine the antagonistic activity the identical procedure is used as for the determination of the agonistic effects, but with the difference that the substance to be evaluated for its antagonistic activity is injectected 5 minutes before the intravenous injection of 1.25 mg/kg Win-55,212 a known cannabinoid-receptor agonist.
The hot plate analgesia is determined according to the method described in Woolfe D. et al. "The evaluation of analgesic action of pethidine hydrochloride (Demerol)", J. Pharmacol. Exp. Ther. 80, 300-307,1944. […]

SMILES strings stand for the structures.

T1 sequence (P21554 whole entry): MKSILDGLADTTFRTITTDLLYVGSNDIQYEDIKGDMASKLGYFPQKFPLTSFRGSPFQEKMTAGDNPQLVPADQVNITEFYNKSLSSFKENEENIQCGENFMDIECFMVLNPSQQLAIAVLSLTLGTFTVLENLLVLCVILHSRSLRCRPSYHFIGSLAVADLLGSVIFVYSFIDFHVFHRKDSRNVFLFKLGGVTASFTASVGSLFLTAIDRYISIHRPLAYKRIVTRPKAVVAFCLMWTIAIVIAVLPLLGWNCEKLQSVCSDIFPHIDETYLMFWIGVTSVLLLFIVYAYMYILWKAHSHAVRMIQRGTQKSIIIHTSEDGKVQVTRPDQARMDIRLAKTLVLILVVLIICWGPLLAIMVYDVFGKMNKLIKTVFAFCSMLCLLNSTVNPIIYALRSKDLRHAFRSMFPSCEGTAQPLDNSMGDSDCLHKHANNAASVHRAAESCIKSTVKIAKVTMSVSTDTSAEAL

For the molecule `O=C(NN1CCCCCC1)C1=NN(c2ccc(Cl)cc2Cl)C(c2ccc(Cl)cc2)C1` (centres unmarked) [Example 1, N-(azepan-1-yl)-5-(4-chlorophenyl)-1-(2,4-dichlorophenyl)-4,5-dihydro-1H-pyrazole-3-carboxamide], the half-inhibitory concentration (IC50) on CB1-Receptor turned out to be 25 nM. The “Antagonistic Effect in (%)” value with Male NMRI mice is given as 116±2%.
For `O=C(NN1CCCCCC1)C1=NN(c2ccc(Cl)cc2Cl)[C@@H](c2ccc(Cl)cc2)C1` [Example 2, (R)-N-(azepan-1-yl)-5-(4-chlorophenyl)-1-(2,4-dichlorophenyl)-4,5-dihydro-1H-pyrazole-3-carboxamide], in that order: 7.9 nM and 137.2%.
Turning to `O=C(NN1CCCCCC1)C1=NN(c2ccc(Cl)cc2Cl)C(c2ccc(Br)cc2)C1` (centres unmarked) [Example 4, N-(azepan-1-yl)-5-(4-bromophenyl)-1-(2,4-dichlorophenyl)-4,5-dihydro-1H-pyrazole-3-carboxamide], the “Antagonistic Effect in (%)” value in the experiment with Male NMRI mice is reported as 100±6%.
